We go through seven molecules from paper PMC4127593, “Novel human D-amino acid oxidase inhibitors stabilize an active-site lid-open conformation” (Bioscience Reports, 2014).

Structures are written as SMILES. “Also recorded” adds a separate entry of the source. Like-named read-outs stand apart in the source and are kept apart here. A value given as a limit tells only on which side of the number the result lay.

Data set [1] has as its target T1, hDAAO (Homo sapiens, UniProt P14920).
T1 construct: hexaHis (N); made in house
Nature of the data set: D-serine and FAD saturation experiments (mechanism of inhibition, Ki). The format is biochemical. The settings on record: for Mechanism of inhibition: D-serine saturation at 40 μM FAD, FAD saturation at 50 mM D-serine; for Ki: global fit of D-serine saturation data to equations (3) and (4), mean±S.D.
Experimental: To determine inhibitor mechanism of action (D-serine- or FAD-competition), saturation experiments were performed using the Amplex Red system. Keeping D-serine or FAD constant, concentration of the other substrate was varied, and hDAAO enzymatic product was measured fluorescently as described above; these saturation tests were conducted in the presence of variable amounts of inhibitor. In these experiments, there was no preincubation period, such that hDAAO was exposed to D-serine, FAD and inhibitor simultaneously. […] After a 1 h reaction, product was measured using the FlexStation II in the endpoint mode. Data were plotted and fit with a one site, specific binding equation (Graphpad Prism): (2) y=Vmax×x/KM+x
Equation (2) permitted a determination of Vmax and KM at variable inhibitor concentration for a determination of competitive, uncompetitive or non-competitive profile. For D-serine competitive inhibitors, the same data were fit using the GraphPad Prism ‘Competitive inhibition’ equation to derive a global Ki value: (3) KM,obs=KM(1+[I]Ki) (4) y=Vmax×x/KM,obs+x

The target in data set [2] is T2, hDAAO (human D-amino acid oxidase) (Homo sapiens, UniProt P14920).
T2 construct: hexaHis (N); made in house
T2 sequence (P14920 whole entry): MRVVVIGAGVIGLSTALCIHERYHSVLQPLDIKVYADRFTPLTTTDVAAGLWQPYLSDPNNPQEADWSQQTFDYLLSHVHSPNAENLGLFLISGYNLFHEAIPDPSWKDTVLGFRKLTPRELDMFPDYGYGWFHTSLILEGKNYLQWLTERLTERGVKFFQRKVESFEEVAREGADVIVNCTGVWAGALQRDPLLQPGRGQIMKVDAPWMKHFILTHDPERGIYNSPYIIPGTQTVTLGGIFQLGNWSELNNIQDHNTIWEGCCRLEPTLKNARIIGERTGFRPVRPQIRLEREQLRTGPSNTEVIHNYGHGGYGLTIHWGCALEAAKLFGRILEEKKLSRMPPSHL
Nature of the data set: hDAAO inhibition assay, Amplex Red format, D-serine as substrate. The settings on record: for IC50: 0.73 nM His-hDAAO, 5 mM D-serine, 450 nM FAD, pH 7.4, mean±S.D.; for IC50 values relative to compound 3: in several of the biochemical assays. The class given is biochemical.
Experimental: (§1) All enzymatic assays were conducted at room temperature (23–24°C) in 96-well plate format. Dose response data to generate IC50 data were analysed via Prism (Graphpad Software) or by a script executed by Pipeline Pilot (Accelrys).
(§2) For our assay, N-terminal hexaHis (His)-tagged hDAAO (prepared as described previously [32]), HRP (horseradish peroxidase), FAD, and compound inhibitor were incubated for 20–30 min. After that pre-incubation period, D-serine and Amplex Red were added and reaction proceeded for 1 hour. Fluorescent product, caused by hydrogen peroxide-dependent, Amplex Red oxidation during hDAAO-catalysed substrate turnover, was measured on a FlexStation II (Molecular Devices) in endpoint mode with these settings: excitation 530 nm, emission 590 nm, cutoff 590 nm and photomultiplier tube on Low. […] For the counter assay, hDAAO was omitted and 800 nM hydrogen peroxide (Sigma) was included.

Data set [3] addresses HRP/hydrogen peroxide detection system (Armoracia rusticana, UniProt P00433). Nature of the data set: Counter assay (Amplex Red; hDAAO omitted, hydrogen peroxide included). To be noted: Amplex Red detection system without hDAAO.
Experimental: as §2
In a further data set the target is rDAAO (rat DAAO) (Rattus norvegicus, UniProt O35078). In words: rDAAO inhibition assay, Amplex Red format.
Sequence of rDAAO (rat DAAO) (O35078 whole entry): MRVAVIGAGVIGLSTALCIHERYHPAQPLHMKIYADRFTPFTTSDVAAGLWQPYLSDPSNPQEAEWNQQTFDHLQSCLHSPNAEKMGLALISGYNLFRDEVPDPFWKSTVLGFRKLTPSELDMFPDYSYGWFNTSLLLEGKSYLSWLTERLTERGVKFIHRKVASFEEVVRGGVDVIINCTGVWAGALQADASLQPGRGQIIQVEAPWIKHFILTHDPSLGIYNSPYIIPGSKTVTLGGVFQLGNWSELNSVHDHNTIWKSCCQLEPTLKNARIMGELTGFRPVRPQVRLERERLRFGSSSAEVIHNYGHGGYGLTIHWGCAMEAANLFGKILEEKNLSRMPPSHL
Data set [4] deals with T1, hDAAO. In words: Jump-dilution assay (reversibility, apparent dissociation rate). The format is biochemical. The settings on record: for koff: jump-dilution.
Experimental: The assay mixture was similar to that described above for the Amplex Red-based assay system. […] After a 30 min pre-incubation to form inhibited complexes, 195 μl of reaction mixture was added. Compared with the standard assay, 50 mM D-serine was utilized as the hDAAO substrate. […] Immediately after adding the reaction mixture, fluorescent substrate was monitored kinetically by the FlexStation II. Data were fit using the following equation [38] in which Pis the fluorescent product formed, tis the time, vs is the final, steady-state reaction velocity, vi is the initial reaction velocity, and k is the koff: (1) [P]=vst+vi−vs/k(1−e^−kt)
Data set [5] is described as follows: In vivo brain penetration after intraperitoneal dosing. The settings on record: mouse, brain and plasma, ip; mice, dosed intraperitoneally; results not shown; read-out: brain:plasma compound ratio. The text has this: Multiple groups have pursued the discovery of potent, brain-penetrant, drug-like hDAAO inhibitors for use in treating schizophrenia and other nervous system disorders. Thus, the identification of a novel hDAAO conformation could guide the design of the next generation of hDAAO inhibitors. […] Like all existing high-affinity hDAAO inhibitors, interaction of these compounds with Arg^283 of hDAAO requires a carboxylic acid or other electronegative moiety, a feature that is known to reduce brain penetration. […] Potency gained by optimizing ligand binding in these hDAAO regions could conceivably reduce the need for extensive Arg^283 association, and, thus, could facilitate the creation of novel inhibitors of hDAAO.

Data set [6] addresses T1, hDAAO. In words: LC–MS-based hDAAO inhibition assay, D-phenylglycine as substrate. The format is biochemical. To be noted: 5 nM His-hDAAO, 5 mM D-phenylglycine, 450 nM FAD; mean±S.D.
Experimental: as §1
For the LC–MS-based hDAAO inhibition assay, his-hDAAO, FAD and compound inhibitors were incubated for 20–30 min. After that period, D-phenylglycine was added and reaction proceeded for 1 h. […] Following the 1 h enzymatic reaction, an equal volume of 100% (v/v) acetonitrile was added. Quantitation of benzylformic acid concentrations was performed using negative ion liquid chromatography/mass spectrometry/mass spectrometry (LC–MS/MS). A 2 μl aliquot of sample was injected onto an ultra-high performance liquid chromatographic system (UPLC Waters Corp) equipped with an API 5500 QTrap mass spectrometer detector (Applied Biosystems/MDS Sciex) operated in the negative TurboIonSpray® mode. […] The mobile phases used for elution consisted of 1.0 mM ammonium formate with 0.2% (v/v) formic acid in water (A) and 1.0 mM ammonium formate with 0.2% (v/v) formic acid in acetonitrile (B) at a total flow rate of 0.600 ml/min. Wash solvent 1 was 3% formic acid in acetonitrile and wash solvent 2 was 3% formic acid in water. Calibration standards were injected once before and once after the analysis of unknown samples to construct a standard curve. A linear weighted (1/concentration^2) regression analysis of the analyte peak area ratio versus theoretical concentration was used to produce calibration curves from standards.
The mark [7] stands for this setting: 80 μM FAD pre-incubation, 50 mM D-serine, mean±S.D.

T1 sequence (P14920 whole entry): as the sequence (P14920 whole entry) above
Sequence of HRP/hydrogen peroxide detection system (P00433 31-338): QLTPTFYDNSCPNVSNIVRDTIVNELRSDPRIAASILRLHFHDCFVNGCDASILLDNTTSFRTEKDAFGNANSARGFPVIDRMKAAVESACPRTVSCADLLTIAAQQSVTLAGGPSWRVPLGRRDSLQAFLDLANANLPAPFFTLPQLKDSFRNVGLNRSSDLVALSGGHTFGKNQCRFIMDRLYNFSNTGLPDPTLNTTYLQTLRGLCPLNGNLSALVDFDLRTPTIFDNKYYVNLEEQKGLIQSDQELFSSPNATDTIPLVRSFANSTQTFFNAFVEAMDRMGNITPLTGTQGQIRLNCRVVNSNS
Experimental for rDAAO (rat DAAO): as §1, §2

On to `Nc1ncnc2c1ncn2[C@@H]1O[C@H](COP(=O)(O)OP(=O)(O)O)[C@@H](O)[C@H]1O` [ADP, reference compound], for which the Mechanism of inhibition entry at hDAAO [1] was “FAD-competitive inhibitor of hDAAO; also recorded: D-serine mixed competition, FAD competitive”. For the same molecule, half-maximal inhibition in data set [2] (IC50) required 580 ± 80 µM.

Take `O=C(O)c1cc2occc2[nH]1` [Compound 1, 4H-furo[3,2-b]pyrrole-5-carboxylic acid, reference compound]: the “inhibition in the counter assay” value in data set [3] is “did not display inhibition”. Further, 0.087 ± 0.011 µM corresponded to half-maximal inhibition against rDAAO (rat DAAO) (IC50).

For the molecule `O=C(O)CCc1cc2c(-c3ccccc3)cc(=O)oc2cc1O` [Compound 2, 3-(7-hydroxy-2-oxo-4-phenyl-2H-chromen-6-yl)propanoic acid], the “hDAAO inhibition after dilution” value on hDAAO [4] (5 nM compound, 50 mM D-serine recovery conditions) is on record as “no significant inhibition”. For the same molecule, the reversibility of inhibition entry on hDAAO [4] (200 nM then 5 nM jump dilution) was “reversible inhibition”. In addition, the koff on hDAAO [4] (setting [7]) was 0.12 ± 0.02 (8) per min. Further, the “inhibition in the counter assay” value in data set [3] was “did not display inhibition”. Also, at hDAAO [1], the Mechanism of inhibition result is listed as “D-serine competitive, FAD uncompetitive”. Further, the inhibitory constant (Ki) (as a rule, the dissociation constant of the complex between target and ligand, obtained from inhibition or displacement) on hDAAO [1] stood at 0.007 ± 0.0014 µM. Further, the Kp in data set [5] is less than 0.05. Moreover, the figures for the half-maximal inhibitory concentration (IC50) (at rDAAO (rat DAAO); in data set [2]; against hDAAO [6]) were 4 ± 1.4 µM, 0.037 ± 0.014 µM and 0.23 ± 0.18 µM, respectively. The inhibition – broadly, the drop in the measured response relative to a control, in per cent – at 0.2 µM in data set [2] (200 nM compound) was more than 80%.

In the case of `O=c1cc(-c2ccccc2)c2cc(CCc3cc(O)c(=O)[nH]n3)c(O)cc2o1` [Compound 3, 4-hydroxy-6-(2-(7-hydroxy-2-oxo-4-phenyl-2H-chromen-6-yl)ethyl)pyridazin-3(2H)-one], the dissociative half-life on hDAAO [4] (from koff) was approximately 1 h. In addition, the koff is 0.015 ± 0.03 (3) per min at hDAAO [4] (setting [7]) and 0.00025 s⁻¹ on hDAAO [4] (read-out: off-rate (koff) (converted)). Also, the Mechanism of inhibition entry at hDAAO [1] was “D-serine competitive, FAD uncompetitive”. On hDAAO [1], this molecule came in with an inhibition constant Ki of less than 0.01 µM. For the same molecule, the Kp in data set [5] is less than 0.05. In addition, the IC50 – broadly, the midpoint of a concentration-inhibition curve – was found to be 0.047 ± 0.016 µM against rDAAO (rat DAAO), 0.02 ± 0.005 µM in data set [2] and 0.11 ± 0.02 µM against hDAAO [6]. In addition, in data set [2] (relative to compound 2), the “more potent as hDAAO inhibitor than compound 2” value is “approximately 2 fold”.

Regarding `Cc1cc(=O)oc2cc(O)c(CCC(=O)O)cc12` [Compound 4], the IC50 in data set [2] came to 18 µM. The “hDAAO inhibitory potency weaker than compound 2” value in data set [2] (relative to compound 2) was “approximately 500 fold”.

Turning to `O=c1[nH]nc(CCc2ccc(O)cc2O)cc1O` [Compound 5, 6-(2,4-dihydroxyphenethyl)-4-hydroxypyridazin-3(2H)-one], the results for the half-maximal inhibitory concentration (IC50) (at rDAAO (rat DAAO); in data set [2]; at hDAAO [6]) were 0.13 µM, 0.054 ± 0.01 µM and 0.013 µM, respectively. Besides, in data set [2], the “IC50 values relative to compound 3” value is recorded as 5–10 fold.

Regarding `COc1ccc(CCc2cc(O)c(=O)[nH]n2)c(OC)c1` [Compound 6, 6-(2,4-dimethoxyphenethyl)-4-hydroxypyridazin-3(2H)-one], the IC50 at rDAAO (rat DAAO) was 0.083 ± 0.007 µM; in data set [2] it was 0.0072 ± 0.001 µM; against hDAAO [6], 0.024 µM. Moreover, the “IC50 values relative to compound 3” value in data set [2] was 5–10 fold.
